Literature values in patent US20060088612A1, “Composition for treatment of topical infection and methods of making and using same” (priority 2004, published 2006).

Test system: HSV
Settings: topical medication for HSV

In the case of `CCCCCCCCCCCCCCCCCCCCCCO` [docosanol], the effectiveness versus placebo is listed as “no more effective than a placebo”.
